In ChEMBL document CHEMBL6083217, “Identification of isoquinolinone DHODH inhibitor isosteres” (Bioorg Med Chem Lett, 2024):
≈ marks a conversion by molar mass, not a printed value.

What was measured:
[1] = Half life in C57BL mouse at 10 mg/kg, po or 2 mg/kg, iv; format: ADME, organism-based; settings: in vivo
[2] = Metabolic stability in mouse liver microsomes assessed as half life; format: ADME, Microsome
[3] = Metabolic stability in human liver microsomes assessed as half life; format: ADME, Microsome
[4] = Unbound clearance in C57BL mouse at 10 mg/kg, po or 2 mg/kg, iv; format: ADME, organism-based; settings: in vivo
[5] = Volume of distribution at steady state in C57BL mouse at 10 mg/kg, po or 2 mg/kg, iv; format: ADME, organism-based; settings: in vivo
[6] = Protein binding in mouse plasma; format: ADME, cell-free; settings: read-out: PPB (converted)
[7] = AUC (0 to infinity) in C57BL mouse at 10 mg/kg, po or 2 mg/kg, iv; format: ADME, organism-based; settings: in vivo
[8] = Solubility of compound in FaSSIF at pH 6.5; format: physicochemical
[9] = Solubility of compound in SGF at pH 1; format: physicochemical
[10] = Tmax in C57BL mouse at 10 mg/kg, po or 2 mg/kg, iv; format: ADME, organism-based; settings: in vivo
[11] = Protein binding in human plasma; format: ADME, cell-free; settings: read-out: PPB (converted)
[12] = Cmax in C57BL mouse at 10 mg/kg, po or 2 mg/kg, iv; format: ADME, organism-based; settings: in vivo
[13] = Oral bioavailability in C57BL mouse at 10 mg/kg; format: ADME, organism-based; settings: in vivo
[14] = Solubility of compound at pH 7; format: physicochemical; settings: buffer
[15] = system: MOLM-13; test: cells; settings: Homo sapiens, MOLM-13, 72 h
Description: Antiproliferative activity against human MOLM-13 cells assessed as inhibition of cell viability incubated for 72 hrs by Cell Titer Glo assay

| Structure (SMILES) | half-life [1] | half-life [2] | half-life [3] | CL free [4] | Vdss [5] | fraction unbound [6] | AUC(0-inf) [7] | solubility at 24 h [8] | solubility at 24 h [9] | Tmax [10] | fraction unbound [11] | Cmax [12] | bioavailability [13] | solubility [14] | IC50 [15] |
| --- | --- | --- | --- | --- | --- | --- | --- | --- | --- | --- | --- | --- | --- | --- | --- |
| CCn1c(CO)nn(-c2cc3c(C(C)C)cn(-c4ccccc4C)c(=O)c3cc2F)c1=O | 5.68 h | > 3 h | > 3 h | 41.4 mL/min/kg | 1.64 L/kg | 0.088 | 57200 ng·h/mL | 67 µg/mL (≈ 153 µM) | 25 µg/mL (≈ 57.3 µM) | 1.67 h | 0.099 | 6170 ng/mL | 125% | 371 µM (≈ 162 µg/mL) | – |
| CCn1c(CO)nn(-c2cc3c(C(C)C)cn(-c4c(F)cccc4Cl)c(=O)c3cc2F)c1=O | – | > 3 h | > 3 h | – | – | – | – | – | – | – | – | – | – | < 4 µM | – |
| CCn1c(CO)nn(-c2nc3c(C(C)C)nn(-c4ccccc4C)c(=O)c3cc2F)c1=O | – | > 3 h | > 3 h | – | – | – | – | – | – | – | – | – | – | 133 µM (≈ 58.3 µg/mL) | 3.3 nM |
| CCn1c(CO)nn(-c2cc3c([C@H](C)C(F)(F)F)nn(-c4ccccc4C)c(=O)c3cc2F)c1=O | – | > 3 h | > 3 h | – | – | – | – | – | – | – | – | – | – | < 4 µM | 1.6 nM |
| CCn1c(CO)nn(-c2cc3c(C(C)C)nn(-c4c(F)cccc4Cl)c(=O)c3cc2F)c1=O | 5.02 h | > 3 h | > 3 h | 144 mL/min/kg | 1.43 L/kg | 0.025 | 50400 ng·h/mL | – | – | 1.67 h | 0.044 | 5730 ng/mL | 103% | < 4 µM | 0.39 nM |
| CCn1c(CO)nn(-c2cc3c(C(C)C)nn(-c4ccccc4C)c(=O)c3cc2F)c1=O | 4.55 h | > 3 h | > 3 h | 40.7 mL/min/kg | 1.94 L/kg | 0.134 | 35100 ng·h/mL | 99 µg/mL (≈ 226 µM) | 78 µg/mL (≈ 178 µM) | 0.83 h | 0.122 | 4260 ng/mL | 111% | > 400 µM | 0.72 nM |
| C=C(C)c1nn(-c2c(F)cccc2Cl)c(=O)c2cc(F)c(-n3nc(CO)n(CC)c3=O)cc12 | – | > 3 h | > 3 h | – | – | – | – | – | – | – | – | – | – | 259 µM (≈ 123 µg/mL) | 0.39 nM |
| CCn1c(CO)nn(-c2cc3c([C@@H](C)C(F)(F)F)nn(-c4ccccc4C)c(=O)c3cc2F)c1=O | – | > 3 h | 2.98 h | – | – | – | – | – | – | – | – | – | – | < 4 µM | 1.4 nM |
| CCn1c(CO)nn(-c2cc3c(cc2F)c(=O)c(-c2ccccc2C)cn3C(C)C)c1=O | – | > 3 h | > 3 h | – | – | – | – | – | – | – | – | – | – | 83 µM (≈ 36.2 µg/mL) | 9.3 nM |
| CCn1c(CO)nn(-c2cc3c(cc2F)c(=O)c(-c2c(F)cccc2Cl)cn3C(C)C)c1=O | – | > 3 h | > 3 h | – | – | – | – | – | – | – | – | – | – | > 400 µM | 29 nM |
| CCn1c(CO)nn(-c2cc3c(cc2F)C(=O)N(c2ccccc2C)C[C@H]3C(C)C)c1=O | – | – | – | – | – | – | – | – | – | – | – | – | – | – | 19 nM |
| CCn1c(CO)nn(-c2cc3c(cc2F)C(=O)N(c2c(F)cccc2Cl)CN3C(C)C)c1=O | – | – | – | – | – | – | – | – | – | – | – | – | – | – | 0.86 nM |
| CCn1c(CO)nn(-c2cc3c(C(C)C)cc(-c4ccccc4C)c(=O)n3cc2F)c1=O | 4.03 h | > 3 h | 2.33 h | 245 mL/min/kg | 2.12 L/kg | 0.032 | 21800 ng·h/mL | 198 µg/mL (≈ 454 µM) | 43 µg/mL (≈ 98.5 µM) | 0.67 h | 0.049 | 3210 ng/mL | 102% | – | 0.72 nM |
| CCn1c(CO)nn(-c2cc3c(cc2F)C(=O)C(c2ccccc2C)CN3C(C)C)c1=O (configuration not stated) | – | – | – | – | – | – | – | – | – | – | – | – | – | – | 0.47 nM |
| CCn1c(CO)nn(-c2cc3c(cc2F)C(=O)N(c2ccccc2C)C[C@@H]3C(C)C)c1=O | – | – | – | – | – | – | – | – | – | – | – | – | – | – | 8.2 nM |
